# PubChem BioAssay (NCI)
#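 Compound exposure: 48 hours, 5 concentrations, 96-well plates. At the GI50, growth is halved. TGI denotes the concentration required for complete inhibition of growth.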 Where a SMILES comes first, the peptide text is derived from it. The star is where a group is joined. Cbz = O=C(OCc1ccccc1)*; Bn = c1ccc(C*)cc1
# Tests used:
# Assay in all cases: growth of human tumour cells (NCI), 48 h
# UACC-257 melanoma = system: UACC-257 melanoma
# OVCAR-3 ovarian = system: OVCAR-3 ovarian
# OVCAR-4 ovarian = system: OVCAR-4 ovarian
# SK-OV-3 ovarian = system: SK-OV-3 ovarian
# SK-MEL-28 melanoma = system: SK-MEL-28 melanoma
# NCI-H23 lung = system: NCI-H23 lung
# OVCAR-5 ovarian = system: OVCAR-5 ovarian
# UACC-62 melanoma = system: UACC-62 melanoma
# RXF 393 renal = system: RXF 393 renal
# SK-MEL-5 melanoma = system: SK-MEL-5 melanoma
SMILES,TGI (UACC-257 melanoma) [µM],TGI (OVCAR-3 ovarian) [µM],TGI (OVCAR-4 ovarian) [µM],TGI (SK-OV-3 ovarian) [µM],TGI (SK-MEL-28 melanoma) [µM],TGI (NCI-H23 lung) [µM],TGI (OVCAR-5 ovarian) [µM],TGI (UACC-62 melanoma) [µM],TGI (RXF 393 renal) [µM],TGI (SK-MEL-5 melanoma) [µM],GI50 (SK-MEL-5 melanoma) [µM],GI50 (OVCAR-3 ovarian) [µM],GI50 (OVCAR-4 ovarian) [µM],GI50 (SK-OV-3 ovarian) [µM],GI50 (SK-MEL-28 melanoma) [µM],GI50 (OVCAR-5 ovarian) [µM],GI50 (UACC-62 melanoma) [µM],GI50 (UACC-257 melanoma) [µM],GI50 (NCI-H23 lung) [µM]
O=C1c2cccc(O)c2C(=O)c2c(O)cccc21,> 100,> 100,> 100,> 100,> 100,> 100,> 100,39.8,> 100,–,–,–,–,–,–,–,–,–,–
CC1C[C@]2(C[C@@H](C)C(=O)O2)OC2CC3(C)C4CCC5C(C)(C)OC(=O)CC[C@@]56C[C@@]46CC[C@]3(C)C12 (some centres undefined),> 100,–,> 100,–,> 100,> 100,> 100,–,> 100,> 100,–,–,–,–,–,–,–,–,–
C=CCOCCC(CC=C)C(=O)CC(=O)OC (centres undefined),> 100,> 100,> 100,> 100,> 100,> 100,> 100,> 100,> 100,> 100,–,–,–,–,–,–,–,–,–
COC(=O)C(Cc1ccc(O)cc1)NC(=O)C(COCc1ccccc1)NC(=O)OCc1ccccc1 (centres undefined) (Cbz-Ser(Bn)-Tyr-OMe; configuration not given here),39.5,31.8,34,31.4,35.9,42.8,36.7,31.1,33.9,31.4,–,–,–,–,–,–,–,–,–
C1CSCCSCSCCS1,> 100,> 100,> 100,> 100,> 100,> 100,> 100,> 100,> 100,> 100,–,–,–,–,–,–,–,–,–
c1ccc(-c2n(Cc3ccc4ccccc4c3)c3ccccc3[n+]2Cc2ccc3ccccc3c2)cc1,–,1.03,0.818,1.08,1.31,–,1.76,0.76,–,0.326,0.175,0.259,0.245,0.309,0.359,0.44,0.224,–,–
NC(=O)c1ccc([N+](=O)[O-])cc1,> 100,> 100,–,> 100,> 100,> 100,–,> 100,> 100,> 100,–,–,–,–,–,–,–,–,–
NC(CCP(=O)(O)O)C(=O)O (centres undefined),> 100,> 100,> 100,–,> 100,> 100,> 100,> 100,> 100,> 100,–,–,–,–,–,–,–,–,–
CCn1c(=O)c(C(=O)O)c(Cl)c2cc3c(cc21)OCO3,> 100,> 100,> 100,> 100,> 100,> 100,> 100,> 100,> 100,> 100,–,–,–,–,–,–,–,–,–
O=C(Nc1ccc(Cl)cc1)c1cc([N+](=O)[O-])ccc1O,16.7,7.56,> 100,25.4,15.6,6.66,81.6,8.17,6.64,8.25,–,–,–,–,–,–,–,–,–
COc1ccc(N2C(=O)/C(=C\c3ccccc3)SC2c2cc(OC)c(OC)c(OC)c2)cc1 (centres undefined),> 100,–,> 100,> 100,> 100,> 100,> 100,> 100,> 100,> 100,–,–,–,–,–,–,–,–,–
COc1ccc(-c2oc3cc(OC(C)=O)cc(OC(C)=O)c3c(=O)c2OC)cc1,34.7,38.6,–,80.6,35.5,–,47.3,22.7,–,25,–,–,–,–,–,–,–,–,–
N=C(N)c1ccc(-c2ccc(-c3ccc4ccccc4c3)s2)s1,31.2,3.7,–,42.3,6.02,11.1,–,4.37,–,28,14.7,1.89,–,20.2,2.25,–,2.1,16.1,2.96
CS(=O)(=O)c1ccc2nc(-c3ccc(O)cc3)sc2c1,38.9,31.8,–,31.3,–,39.6,31.6,34.4,32.9,31.8,–,–,–,–,–,–,–,–,–
CC(=O)OCC1OC(NC(=O)N(CCCl)N=O)C(OC(C)=O)C(OC(C)=O)C1OC(C)=O (centres undefined),> 100,> 100,> 100,> 100,> 100,> 100,> 100,> 100,> 100,> 31.6,–,–,–,–,–,–,–,–,–
C[n+]1c2ccccc2c(CNCC(=O)O)c2ccccc21,23.8,6.2,25.2,15.7,–,24.8,28.5,3.83,6.5,14.4,–,–,–,–,–,–,–,–,–
